Experimental findings from publication PMC7531004, “Discovery of gramicidin A analogues with altered activities by multidimensional screening of a one-bead-one-compound library” (Nature Communications, 2020) are described below.

Where a SMILES comes first, the peptide text is derived from it. [ ]: non-standard residue; d: D form. The star is where a group is joined. NHCH2CH2OH = OCCN*; For = O=C*

Data set [1] can be described thus: H+/Na+ transport assay of bead-derived peptides (one-point).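 Also: relative to parent gramicidin A activity set to 1.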 It counts as biochemical. More on the design: key: relative activity; mean of two control wells = 1.00. The settings on record: bead-derived peptide solution, EYPC/EYPG LUVs. Put shortly:
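One-point screen: peptide + pyranine-loaded LUVs, 30 min RT with vortexing, 96-well. Read-out is fluorescence intensity scaled as 100 × (Ix – I0)/(Imax – I0). Imax from Triton X-100, I0 from untreated vesicles, and the mean of the two control wells is set to 1.00.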

The conditions of data set [2]: cell viability/%. The method, boiled down:
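Peptide stocks diluted 250× in growth medium; P388 cells 1 × 10^4 cells/mL final; 37 °C, 5% CO2, 92 h. WST-1 + 1-methoxy PMS, 4 h, A415. Output: % viability.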

The test system of data set [3] is Streptococcus pyogenes SSI-9. Put plainly: Antibacterial activity assay of bead-derived peptides (three concentrations). It counts as cell-based. Also on record: key: +++: inhibition by the 640-fold diluted peptide solution; ++: inhibition by the 160-fold diluted solution; +: inhibition by the 40-fold diluted solution; -: no inhibition. The settings on record: S. pyogenes, bead-derived peptide solution, three concentrations. The method, boiled down:
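Growth inhibition scored visually as precipitated bacteria after 37 °C, 18 h incubation. Streptococcus pyogenes SSI-9 inoculum of 2 × 10^5 CFU in Ca2+/Mg2+-adjusted Mueller Hinton broth plus 5% laked horse blood; peptides tested at three levels: stock, 4-fold and 16-fold DMSO dilutions.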

As for `CC(C)C[C@@H](NC(=O)[C@H](C)NC(=O)[C@H](NC(=O)[C@H](C)NC(=O)CNC(=O)[C@@H](NC=O)C(C)C)[C@H](C)O)C(=O)N[C@H](C(=O)N[C@H](CC(C)C)C(=O)N[C@@H](Cc1c[nH]c2ccccc12)C(=O)N[C@@H](C(=O)N[C@@H](Cc1c[nH]c2ccccc12)C(=O)N[C@H](CC(C)C)C(=O)N[C@@H](Cc1c[nH]c2ccccc12)C(=O)N[C@H](CC(C)C)C(=O)N[C@@H](Cc1c[nH]c2ccccc12)C(=O)NCCO)[C@H](C)O)C(C)C` [compound 131] (For-VGA[dT]A[dL]V[dL]W[dT]W[dL]W[dL]W-NHCH2CH2OH), in data set [1], the “H+/Na+ transport activity normalized against the value of 1 (1.00)” value (shortened to “H+/Na+ transport activity normalized”) worked out at 1.10. The compound also gave a viability in data set [2] of 100%. The antibacterial activity entry in data set [3] is “-”.
For the compound `CC(C)C[C@@H](NC(=O)[C@H](Cc1c[nH]c2ccccc12)NC(=O)[C@H](NC(=O)[C@@H](NC(=O)[C@H](NC(=O)[C@H](C)NC(=O)[C@H](NC(=O)[C@H](C)NC(=O)CNC(=O)[C@@H](NC=O)C(C)C)C(C)C)C(C)C)C(C)C)C(C)C)C(=O)N[C@@H](Cc1c[nH]c2ccccc12)C(=O)N[C@@H](C(=O)N[C@@H](Cc1c[nH]c2ccccc12)C(=O)N[C@@H](C(=O)N[C@@H](Cc1c[nH]c2ccccc12)C(=O)NCCO)C(C)C)C(C)C` [compound 169] (For-VGA[dV]A[dV]V[dV]W[dL]W[dV]W[dV]W-NHCH2CH2OH), in data set [1], the “H+/Na+ transport activity normalized” value was found to be 1.04. Further, the viability in data set [2] stood at 100%. In addition, the antibacterial activity result in data set [3] is “++”.
For `CC(C)C[C@@H](NC(=O)[C@H](C)NC(=O)CNC(=O)[C@@H](NC=O)C(C)C)C(=O)N[C@@H](C)C(=O)N[C@H](CC(C)C)C(=O)N[C@H](C(=O)N[C@H](CC(C)C)C(=O)N[C@@H](Cc1c[nH]c2ccccc12)C(=O)N[C@@H](C(=O)N[C@@H](Cc1c[nH]c2ccccc12)C(=O)N[C@@H](C(=O)N[C@@H](Cc1c[nH]c2ccccc12)C(=O)N[C@H](CC(C)C)C(=O)N[C@@H](Cc1c[nH]c2ccccc12)C(=O)NCCO)C(C)C)[C@H](C)O)C(C)C` [compound 196] (For-VGA[dL]A[dL]V[dL]W[dT]W[dV]W[dL]W-NHCH2CH2OH), the “H+/Na+ transport activity normalized” value in data set [1] was determined as 1.06. In data set [2], this compound gave a viability of 100%. Also, the antibacterial activity result in data set [3] is “-”.
Turning to `CC(C)C[C@@H](NC(=O)[C@H](C)NC(=O)CNC(=O)[C@@H](NC=O)C(C)C)C(=O)N[C@@H](C)C(=O)N[C@@H](C(=O)N[C@H](C(=O)N[C@@H](C(=O)N[C@@H](Cc1c[nH]c2ccccc12)C(=O)N[C@H](CC(C)C)C(=O)N[C@@H](Cc1c[nH]c2ccccc12)C(=O)N[C@H](CC(C)C)C(=O)N[C@@H](Cc1c[nH]c2ccccc12)C(=O)N[C@@H](C(=O)N[C@@H](Cc1c[nH]c2ccccc12)C(=O)NCCO)C(C)C)[C@H](C)O)C(C)C)C(C)C` [compound 200] (For-VGA[dL]A[dV]V[dT]W[dL]W[dL]W[dV]W-NHCH2CH2OH), the “H+/Na+ transport activity normalized” value in data set [1] amounted to 1.04. Further, the viability in data set [2] stood at 100%. Besides, the antibacterial activity entry in data set [3] is “+”.
On the same counts, the results for `CC(C)C[C@@H](NC(=O)[C@H](C)NC(=O)CNC(=O)[C@@H](NC=O)C(C)C)C(=O)N[C@@H](C)C(=O)N[C@@H](C(=O)N[C@H](C(=O)N[C@H](CC(C)C)C(=O)N[C@@H](Cc1c[nH]c2ccccc12)C(=O)N[C@@H](C(=O)N[C@@H](Cc1c[nH]c2ccccc12)C(=O)N[C@@H](C(=O)N[C@@H](Cc1c[nH]c2ccccc12)C(=O)N[C@H](CC(C)C)C(=O)N[C@@H](Cc1c[nH]c2ccccc12)C(=O)NCCO)[C@H](C)O)C(C)C)C(C)C)C(C)C` [compound 201] (For-VGA[dL]A[dV]V[dL]W[dV]W[dT]W[dL]W-NHCH2CH2OH) are 1.06, 100% and “-”.
Taken in the same sequence, the figures for `CC(C)C[C@@H](NC(=O)[C@H](C)NC(=O)CNC(=O)[C@@H](NC=O)C(C)C)C(=O)N[C@@H](C)C(=O)N[C@@H](C(=O)N[C@H](C(=O)N[C@@H](C(=O)N[C@@H](Cc1c[nH]c2ccccc12)C(=O)N[C@@H](C(=O)N[C@@H](Cc1c[nH]c2ccccc12)C(=O)N[C@@H](C(=O)N[C@@H](Cc1c[nH]c2ccccc12)C(=O)N[C@H](CC(C)C)C(=O)N[C@@H](Cc1c[nH]c2ccccc12)C(=O)NCCO)C(C)C)C(C)C)[C@H](C)O)C(C)C)C(C)C` [compound 285] (For-VGA[dL]A[dV]V[dT]W[dV]W[dV]W[dL]W-NHCH2CH2OH) were 1.08, 100% and “-”.
For the compound `CNC(=O)C[C@@H](NC(=O)[C@H](Cc1c[nH]c2ccccc12)NC(=O)[C@@H](CC(C)C)NC(=O)[C@H](Cc1c[nH]c2ccccc12)NC(=O)[C@@H](CC(C)C)NC(=O)[C@H](Cc1c[nH]c2ccccc12)NC(=O)[C@@H](CC(C)C)NC(=O)[C@@H](NC(=O)[C@@H](CC(C)C)NC(=O)[C@H](C)NC(=O)[C@@H](CC(C)C)NC(=O)[C@H](C)NC(=O)CNC(=O)[C@@H](NC=O)C(C)C)C(C)C)C(=O)N[C@@H](Cc1c[nH]c2ccccc12)C(=O)NCCO` [compound 300] (For-VGA[dL]A[dL]V[dL]W[dL]W[dL]W[dD](NHMe)W-NHCH2CH2OH), in data set [1], the “H+/Na+ transport activity normalized” value was determined as 1.00. In data set [2], the viability is 100%. The antibacterial activity entry in data set [3] is listed as “-”.
Taken in the same sequence, the figures for `CNC(=O)C[C@@H](NC(=O)[C@H](C)NC(=O)[C@@H](CC(C)C)NC(=O)[C@H](C)NC(=O)CNC(=O)[C@@H](NC=O)C(C)C)C(=O)N[C@H](C(=O)N[C@@H](C(=O)N[C@@H](Cc1c[nH]c2ccccc12)C(=O)N[C@H](CC(C)C)C(=O)N[C@@H](Cc1c[nH]c2ccccc12)C(=O)N[C@H](CC(C)C)C(=O)N[C@@H](Cc1c[nH]c2ccccc12)C(=O)N[C@@H](C(=O)N[C@@H](Cc1c[nH]c2ccccc12)C(=O)NCCO)C(C)C)C(C)C)C(C)C` [compound 346] (For-VGA[dL]A[dD](NHMe)V[dV]W[dL]W[dL]W[dV]W-NHCH2CH2OH) were 1.12, 100% and “-”.
As to `CNC(=O)C[C@@H](NC(=O)[C@H](Cc1c[nH]c2ccccc12)NC(=O)[C@H](NC(=O)[C@H](Cc1c[nH]c2ccccc12)NC(=O)[C@H](NC(=O)[C@H](Cc1c[nH]c2ccccc12)NC(=O)[C@H](NC(=O)[C@@H](NC(=O)[C@H](NC(=O)[C@H](C)NC(=O)[C@@H](CC(C)C)NC(=O)[C@H](C)NC(=O)CNC(=O)[C@@H](NC=O)C(C)C)C(C)C)C(C)C)C(C)C)C(C)C)C(C)C)C(=O)N[C@@H](Cc1c[nH]c2ccccc12)C(=O)NCCO` [compound 362] (For-VGA[dL]A[dV]V[dV]W[dV]W[dV]W[dD](NHMe)W-NHCH2CH2OH), in data set [1], the “H+/Na+ transport activity normalized” value is recorded as 1.05. In data set [2], the viability turned out to be 100%. In addition, in data set [3], the antibacterial activity entry is listed as “-”.
`CC(C)C[C@@H](NC(=O)[C@H](C)NC(=O)CNC(=O)[C@@H](NC=O)C(C)C)C(=O)N[C@@H](C)C(=O)N[C@@H](C(=O)N[C@H](C(=O)N[C@H](CC(C)C)C(=O)N[C@@H](Cc1c[nH]c2ccccc12)C(=O)N[C@H](CC(C)C)C(=O)N[C@@H](Cc1c[nH]c2ccccc12)C(=O)N[C@@H](C(=O)N[C@@H](Cc1c[nH]c2ccccc12)C(=O)N[C@@H](C(=O)N[C@@H](Cc1c[nH]c2ccccc12)C(=O)NCCO)C(C)C)[C@H](C)O)C(C)C)[C@H](C)O` [compound 381] (For-VGA[dL]A[dT]V[dL]W[dL]W[dT]W[dV]W-NHCH2CH2OH): the “H+/Na+ transport activity normalized” value in data set [1] stood at 1.03. Besides, the viability in data set [2] was determined as 100%. Also, the antibacterial activity result in data set [3] is reported as “-”.
`CC(C)C[C@@H](NC(=O)[C@H](C)NC(=O)[C@H](NC(=O)[C@H](C)NC(=O)CNC(=O)[C@@H](NC=O)C(C)C)C(C)C)C(=O)N[C@H](C(=O)N[C@@H](C(=O)N[C@@H](Cc1c[nH]c2ccccc12)C(=O)N[C@@H](C(=O)N[C@@H](Cc1c[nH]c2ccccc12)C(=O)N[C@@H](C(=O)N[C@@H](Cc1c[nH]c2ccccc12)C(=O)N[C@H](CC(C)C)C(=O)N[C@@H](Cc1c[nH]c2ccccc12)C(=O)NCCO)C(C)C)C(C)C)C(C)C)C(C)C` [compound 437] (For-VGA[dV]A[dL]V[dV]W[dV]W[dV]W[dL]W-NHCH2CH2OH): the “H+/Na+ transport activity normalized” value in data set [1] turned out to be 1.11. The viability in data set [2] was 100%. The antibacterial activity result in data set [3] was “+”.
In the case of `CC(C)C[C@@H](NC(=O)[C@H](Cc1c[nH]c2ccccc12)NC(=O)[C@@H](CC(C)C)NC(=O)[C@@H](NC(=O)[C@H](NC(=O)[C@H](C)NC(=O)[C@H](NC(=O)[C@H](C)NC(=O)CNC(=O)[C@@H](NC=O)C(C)C)C(C)C)C(C)C)C(C)C)C(=O)N[C@@H](Cc1c[nH]c2ccccc12)C(=O)N[C@H](CC(C)C)C(=O)N[C@@H](Cc1c[nH]c2ccccc12)C(=O)N[C@@H](C(=O)N[C@@H](Cc1c[nH]c2ccccc12)C(=O)NCCO)C(C)C` [compound 511] (For-VGA[dV]A[dV]V[dL]W[dL]W[dL]W[dV]W-NHCH2CH2OH), in data set [1], the “H+/Na+ transport activity normalized” value is reported as 1.01. For the same compound, the viability in data set [2] was 1.8%. Also, the antibacterial activity entry in data set [3] is “++”.

As usually defined, the viability is a per cent measure of how many cells are alive, often set against a control.
